The source of these data is US20100311757A1, “Salarins And Tulearins, Compositions And Uses Thereof” (RAMOT AT TEL-AVIV UNIVERSITY LTD., priority 2007, published 2010).

The subject of one assay is UT7. The experiment in a line: MTT colorimetric cell proliferation assay, UT7 cells. The class given is cell-based, human. The note with it: for inhibition of cell growth, dose and time dependence: various concentrations, 24, 48 and 72 hours. The protocol:
(§1) The anti-cancer activities of the compounds of the invention have been determined in-vitro in human and mouse leukemia cell lines. The procedure was carried out using the colorimetric methyl thiazol tetrazoliumbromide (MTT) assay for measuring cell proliferation (Carmichael et al., (1987), Cancer Res. 47: 936-942).
(§2) The Human leukemia cell lines K562 (Lozzio and Lozzio (1975) Blood, 45, 321-334) and UT7 (Komatsu et al. (1991), Cancer Res. 51, 341-348) were grown in RPMI 1640 and IMDM medium respectively, supplemented with 10% fetal bovine serum (FBS), 2 mM L-glutamine, 100 ug/ml streptomycin and 100 u/ml penicillin. The murine Ba/F3 cell line stably transfected with the erythropoietin receptor (EPO-R) cDNA (D'Andrea et al., (1991), Mol. Cell. Biol. 11, 1980-1987) was cultured in RPMI medium supplemented with recombinant human EPO (rHuEPO, 0.5 U/ml). UT7 cells were cultured in the presence of 2 U/ml rHuEPO. Cells were maintained at 37° C. in a 5% CO2 humidified incubator.
(§3) Cells (4×10^3) were seeded in triplicate into 96-well, flat-bottom culture plates and grown in the presence of the compounds at different concentrations for 24, 48 and 72 hours. Untreated cells served as control. After incubation with the compound, cell growth was determined using the colorimetric methylthiazole tetrazolium bromide (MTT) assay (Mosmann (1983), J Immunol Methods 65, 55-63). Briefly, MTT was added to a final concentration of 5 μg/ml to each well and further incubated for 4 hours at 37° C. After complete solubilization of the dye by acid/alcohol (0.04 N HCl in 2-propanol), plates were read at 570 nm in an ELISA reader, reference 690 nm. Growth of cells exposed to treatment was calculated as the percent of optical density (OD) of the compound-treated cells to that of the non-treated cells.

Assay [1] deals with Ba/F3 cells expressing the EPO-R. The experiment in a line: MTT colorimetric cell proliferation assay, Ba/F3 cells expressing EPO-R. In kind it is cell-based, murine. The protocol:
as §1, §2, §3

For assay [2], the system named is Ba/F3, K562 and UT7 cell lines. The experiment in a line: Cell morphology by phase contrast microscopy. As to conditions: 0.01 μM or 0.2 μM, over-night. The class given is cell-based, human and mouse. The protocol:
Cells were viewed in phase contrast microscopy. The size bar indicates a size of 15 um.
The potential effects of Salarin C on cell proliferation were also tested. Human leukemic cell lines UT-7 and K562, and the murine pro B cell line Ba/F3 which stably expresses the EPO receptor (EPO-R) were used as targets. […] Salarin C at concentrations of 0.0005-0.5 μg/ml was added to the cells for 24 hours, and cell viability was determined by the MTT assay (FIG. 24B). ˜50% inhibition of cell proliferation was obtained at 0.5 μg/ml (1 μM) of Salarin C for the UT-7 cell line and at 0.05 μg/ml (0.1 μM) for the K562 cell line. […] The effect of Salarin C on cell viability was also observed by microscopy (FIG. 25).

The next assay relates to K562. Put plainly: MTT colorimetric cell proliferation assay, K562 cells. In kind it is cell-based, human. The method, then: as §1, §2, §3
The subject of assay [3] is UT-7, K562 and Ba/F3 cell lines. Put plainly: MTT colorimetric cell proliferation assay, statements across the three cell lines. The class given is cell-based, human and mouse. The method, then: as §1, §2, §3

As a reminder, the inhibition is the percentage by which the read-out fell short of the control. A low value points to a weak effect. `CCCCCCCC(=O)OCC/C=C/C1OC1C1OC(=O)/C=C\C=C\C(=O)N(C(C)=O)C(=O)/C=C(/C)CCC2OC2C1OC(=O)NC(C)=O` (centres unmarked) [Salarin A]: in the assay on UT7 (Homo sapiens, UT7 cells, 1 μg/ml, 72 h of exposure), the inhibition at 1 µg/mL amounted to 45%. Besides, the “inhibition of cell growth, dose and time dependence” value with UT7 (UT7 cells) is “in a dose and time dependent manner”. The compound also gave an inhibition at 0.5 µg/mL in assay [1] (Mus musculus, BaF3, Ba/F3 cells expressing EPO-R, 0.5 ug/ml, 72 h of exposure) of 48%.

With `CCCCCCCC(=O)OCC/C=C/C1OC1C1OC(=O)/C=C\C=C\c2nc(oc2C)/C=C(/C)CCC2OC2C1OC(=O)NC(C)=O` (centres unmarked) [Salarin C], the inhibition at 1 µM in the assay with UT7 (Homo sapiens, UT7, UT-7 cells, 0.5 μg/ml (1 μM), 24 hours) is roughly 50%. Further, the cell viability result with UT7 (UT-7 cells, 0.5 μg/ml (1 μM), 72 h) is “abolished nearly all viability”; in the assay with K562 (0.5 μg/ml (1 μM), 72 h), “abolished nearly all viability”; in assay [1] (Ba/F3 cells, 0.5 μg/ml (1 μM), 72 h), “abolished nearly all viability”. For the same compound, the “cell viability and morphology by microscopy” value in assay [2] is “lower viability and characteristics of apoptotic cells”. This compound had an inhibition at 0.1 µM in the assay on K562 (Homo sapiens, 0.05 μg/ml (0.1 μM), 24 hours) of roughly 50%. For the same compound, the relative potency result in assay [3] (0.5 μg/ml, 72 h, three tested cell lines) was “more potent than Salarins A and B and Tulearin A”. Also, the “anti-proliferative activity, dose dependence” value in assay [3] (0.0005-0.5 μg/ml, 24 hours) was “dose-dependent”. In addition, the IC50 in assay [3] (24 hours, across the tested cell lines, read-out: effective concentration range (IC50)) is 100 to 1000 nM. Further, the proliferation entry in assay [1] (Ba/F3 cells, 0.1 μM, 24 hours) was “completely arrested”.

Turning to `CCCCC/C=C/C(C)=C/C1CC(C)C/C=C/CCC(O)C(OC(N)=O)CCC(C)CC(O)C(C)C(=O)O1` (centres unmarked) [Tulearin A], the inhibition at 0.5 µg/mL in the assay with UT7 (Homo sapiens, UT7 cells, 0.5 ug/ml, 72 h of exposure) turned out to be 35%; with K562 (Homo sapiens, 0.5 ug/ml, 72 h of exposure), 62%. The “inhibition of cell growth, dose and time dependence” value is “in a dose and time dependent manner” with UT7 (UT7 cells); “in a dose and time dependent manner” in the assay with K562 (various concentrations, 24, 48 and 72 hours).
